From patent US20170137824A1, “NEW TREATMENT AGAINST INFLUENZA VIRUS” (priority 2014, published 2017)
Residues, ends and D or L forms follow the SMILES beside them. *: point of attachment. Cbz = O=C(OCc1ccccc1)*

Assays:
X31 strain of IAV [1] = assay: Uncoating after endocytosis and fusion at LEs (ammonium chloride block and washout, drugs added 60 min post-uptake); type: cell-based, Influenza A X31 virus strain (H3N2); details: drug added 60 min post-uptake, kept during 60 min uncoating
X31 strain of IAV [2] = assay: Acid-bypass uncoating assay (fusion at the plasma membrane); type: cell-based, Influenza A X31 virus strain (H3N2); details: for block of uncoating by type II myosin inhibitors: after acid-bypass at the PM (context); for uncoating blocked/decreased by % following PM bypass: percent reduction of uncoating

CC(C)C[C@@H](C=O)NC(=O)[C@H](CC(C)C)NC(=O)[C@H](CC(C)C)NC(=O)OCc1ccccc1 [MG132] (Cbz-Leu-Leu-Leu-aldehyde)
effect on uncoating when IAV fuses at the LEs (X31 strain of IAV [1]): no significant effect

O=S(=O)(c1cccc2c(Cl)cccc12)N1CCCNCC1 [ML-9]
block of uncoating by type II myosin inhibitors (X31 strain of IAV [2]): more than half

Cc1ccc2c(c1)C(=O)C1(O)CCN(c3ccccc3)C1=N2 (stereo not drawn) [blebbistatin]
block of uncoating by type II myosin inhibitors (X31 strain of IAV [2]): more than half

N#CC(=C(O)c1ccc(Cl)cc1Cl)c1nc2cc(Cl)ccc2c(=O)[nH]1 [ciliobrevin D]
uncoating following acid-bypass at the PM, reduced to % of control (X31 strain of IAV [2]; remaining uncoating relative to control, siRNA experiments in A549 cells): 62%

C=C1[C@@H](C)[C@H]2[C@H](Cc3ccccc3)NC(=O)[C@]23[C@H](OC(C)=O)/C=C/[C@@](C)(O)C(=O)[C@@H](C)C/C=C/[C@H]3[C@@H]1O [cytochalasin D]
uncoating blocked/decreased by % following PM bypass (X31 strain of IAV [2]): 83%

CC(Nc1nc(N2CCCC2)nc2ccccc12)c1ccccc1 (stereo not drawn) [importazole]
effect on uncoating when IAV fuses at the LEs (X31 strain of IAV [1]): no significant effect

COC(=O)Nc1nc2ccc(C(=O)c3cccs3)cc2[nH]1 [nocodazole]
uncoating blocked/decreased by % following PM bypass (X31 strain of IAV [2]): 35%

B1: HDAC6 (Dbm), mouse HDAC6 without the dynein-binding domain (del437-481), expressed in rescued HDAC6 KO MEFs (protein)
chain: MTSTGQDSSTRQRKSRHNPQSPLQESSATLKRGGKKCAVPHSSPNLAEVKKKGKMKKLSQPAEEDLVVGLQGLDLNPETRVPVGTGLVFDEQLNDFHCLWDDSFPESPERLHAIREQLILEGLLGRCVSFQARFAEKEELMLVHSLEYIDLMETTQYMNEGELRVLAETYDSVYLHPNSYSCACLATGSVLRLVDALMGAEIRNGMAVIRPPGHHAQHNLMDGYCMFNHLAVAARYAQKKHRIQRVLIVDWDVHHGQGTQFIFDQDPSVLYFSIHRYEHGRFWPHLKASNWSTIGFGQGQGYTINVPWNQTGMRDADYIAAFLHILLPVASEFQPQLVLVAAGFDALHGDPKGEMAATPAGFAHLTHLLMGLAGGKLILSLEGGYNLRALAKGVSASLHTLLGDPCPMLESCVVPCASAQTSIYCTLEALEPFWEVLVYDEKMMSHCNLWDNHHPETPQRILRIMCHLEEVGLAARCLILPARPALDSELLTCHSAEYVEHLRTTEKMKTRDLHREGANFDSIYICPSTFACAKLATGAACRLVEAVLSGEVLNGIAVVRPPGHHAEPNAACGFCFFNSVAVAARHAQIIAGRALRILIVDWDVHHGNGTQHIFEDDPSVLYVSLHRYDRGTFFPMGDEGASSQVGRDAGIGFTVNVPWNGPRMGDADYLAAWHRLVLPIAYEFNPELVLISAGFDAAQGDPLGGCQVTPEGYAHLTHLLMGLAGGRIILILEGGYNLASISESMAACTHSLLGDPPPQLTLLRPPQSGALVSISEVIQVHRKYWRSLRLMKMEDKEECSSSRLVIKKLPPTASPVSAKEMTTPKGKVPEESVRKTIAALPGKESTLGQAKSKMAKAVLAQGQSSEQAAKGTTLDLATSKETVGGATTDLWASAAAPENFPNQTTSVEALGETEPTPPASHTNKQTTGASPLQGVTAQQSLQLGVLSTLELSREAEEAHDSEEGLLGEAAGGQDMNSLMLTQGFGDFNTQDVFYAVTPLSWCPHLMAVCPIPAAGLDVSQPCKTCGTVQENWVCLTCYQVYCSRYVNAHMVCHHEASEHPLVLSCVDLSTWCYVCQAYVHHEDLQDVKNAAHQNKFGEDMPHSH
uncoating using PM bypass, relative to WT MEFs (dynein): uncoating in the HDAC6 (Db^m) cells was reduced to 58%% of WT MEFs | uncoating when the virus was allowed to fuse at LEs, compared to WT MEFs (dynein): uncoating was reduced to 67% in HDAC6 (Db^m) cells compared to WT MEFs
